We go through two compounds from patent publication US5312816A, “Method of combatting osteoporosis in mammalian subjects, utilizing organic boron compounds” (priority 1993, dated 1994).

Data set [1] deals with Hepatic oxidative phosphorylation. The data set is described as follows: Hepatic oxidative phosphorylation, Gilson oxygraph. The format is biochemical, mouse. As to conditions: 10^-6 M; 1 µM. The source says:
(§1) 1. Cf1 male mouse hepatic 10% homogenates in 0.25M sucrose+0.001MEDTA,pH 7.2.

The next data set is described as follows: in vivo. Conditions: mouse, Table 1, N=6. Here is the method: Amine borane compounds (0 to 100 mg/kg) were administered to CF1 male mice as a single injection with six mice for each dosage. Mice were weighed daily and the number of deaths was recorded each day for a 14 day period. The LD50 value was determined by the procedure of S.C. Gad and C.S. Weil, "Statistics for Toxicologists" in Principles and Methods of Toxicology, A.W. Hayes, Ed., 2nd Edition, P 435-483 Raven Press, New York 1982.

Data set [2] has as its system Acid phosphatase. The data set is described as follows: Human osteoporosis fibroblasts acid phosphatase activity. The format is cell-based. As to conditions: read-out: Acid Phosphatase IC50; Table X; human osteoporosis fibroblasts. The source says: (§2) 1. Acid phosphatase -beta glycerol-3-phosphate, pH 5.0, released IP 720 nm.
The target of a further data set is T1, Prostaglandin synthetase (Bos taurus, UniProt O62664).
T1 construct: Prostaglandin synthetase purified beef seminal vesicle; from tissue
T1 sequence (O62664 25-600): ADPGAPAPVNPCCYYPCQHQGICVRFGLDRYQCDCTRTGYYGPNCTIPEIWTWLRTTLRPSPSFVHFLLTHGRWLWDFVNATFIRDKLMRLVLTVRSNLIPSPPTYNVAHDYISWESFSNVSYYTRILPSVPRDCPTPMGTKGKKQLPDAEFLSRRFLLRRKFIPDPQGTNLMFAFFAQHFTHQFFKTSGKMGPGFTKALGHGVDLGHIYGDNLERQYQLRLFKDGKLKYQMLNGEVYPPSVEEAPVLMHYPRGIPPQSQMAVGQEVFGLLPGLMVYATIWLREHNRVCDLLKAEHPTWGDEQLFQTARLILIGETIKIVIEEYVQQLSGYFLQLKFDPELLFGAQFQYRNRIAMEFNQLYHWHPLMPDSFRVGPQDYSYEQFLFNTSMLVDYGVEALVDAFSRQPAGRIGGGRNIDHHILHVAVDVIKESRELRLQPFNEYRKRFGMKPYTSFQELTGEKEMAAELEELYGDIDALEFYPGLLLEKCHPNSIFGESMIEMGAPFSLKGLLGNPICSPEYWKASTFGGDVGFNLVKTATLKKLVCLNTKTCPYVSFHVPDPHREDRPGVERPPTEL
The data set is described as follows: Prostaglandin synthetase (cyclooxygenase), purified beef seminal vesicle. It is filed as biochemical. The text has this:
(§3) Prostaglandin synthetase purified beef seminal vesicle ^3 H arachidonic acid (86.2 Ci/mmol), tlc separation.

Data set [3] concerns Sprague Dawley male rats. The data set is described as follows: Chronic adjuvant arthritis screen, Mycobacterium butyricum. Conditions: Table 1; Indomethacin 10 mg/kg. It is filed as in vivo.
Data set [4] has as its system Cf1 male mice. The data set is described as follows: Anti-inflammatory screen, Winter's test, 2% carrageenan hind foot. The format is in vivo. As to conditions: Table 1; drugs 8 or 10 mg/kg I.P. 2X; Indomethacin 10 mg/kg. Here is the method: Anti-inflammatory Screen- Cf1 - male mice-Winter's Test 2% carrageenan S.C. plantar surface of hind foot, drugs administered @8 or 10 mg/kg I.P. 2X
Winter, C.A., et al, Proc. Soc.

For data set [5], the target named is T2, Cathepsin (Rattus norvegicus, UniProt P24268).
T2 construct: azocasein assay pH 5.0
T2 sequence (P24268 65-407): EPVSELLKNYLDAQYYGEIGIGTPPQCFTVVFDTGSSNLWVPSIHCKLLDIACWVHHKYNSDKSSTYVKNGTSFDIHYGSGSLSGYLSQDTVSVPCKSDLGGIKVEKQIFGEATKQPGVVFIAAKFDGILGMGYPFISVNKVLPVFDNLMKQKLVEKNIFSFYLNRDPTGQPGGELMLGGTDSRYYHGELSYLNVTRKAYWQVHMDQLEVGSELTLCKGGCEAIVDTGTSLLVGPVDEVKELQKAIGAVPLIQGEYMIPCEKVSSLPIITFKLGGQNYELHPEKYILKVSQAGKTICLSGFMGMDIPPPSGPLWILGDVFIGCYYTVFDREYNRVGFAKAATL
The data set is described as follows: Rat PMNs cathepsin activity. It is filed as cell-based. Conditions: pH 5; 5 × 10^-6 M, N=6; read-out: Rat PMNs Cathep. The source says:
(§4) 2. PMNs-polymorphonuclear neutrophils-rat peritoneal cavity 0.5% oyster glycogen.
(§5) 2. Acid Cathepsin D -azocasein-pH 5.0, hydrolytic azo-peptide produce 366 nm.

Data set [6] deals with Acid phosphatase. The data set is described as follows: Rat PMNs acid phosphatase activity. As to conditions: 5 × 10^-6 M, N=6; 5 µM. The format is cell-based.
From the text: as §4, §2

The target in data set [7] is T3, Cathepsin D (Mus musculus, UniProt P18242).
T3 construct: azocasein assay pH 5.0
T3 sequence (P18242 65-410): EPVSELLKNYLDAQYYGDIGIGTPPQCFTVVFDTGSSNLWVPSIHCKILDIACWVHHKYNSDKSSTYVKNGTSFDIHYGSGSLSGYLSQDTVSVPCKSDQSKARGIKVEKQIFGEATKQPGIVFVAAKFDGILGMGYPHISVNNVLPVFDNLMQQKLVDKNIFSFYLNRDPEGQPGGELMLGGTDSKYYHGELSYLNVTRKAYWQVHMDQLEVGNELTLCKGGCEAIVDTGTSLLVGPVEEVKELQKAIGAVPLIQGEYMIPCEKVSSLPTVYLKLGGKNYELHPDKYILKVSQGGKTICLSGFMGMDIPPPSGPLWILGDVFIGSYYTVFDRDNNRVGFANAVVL
The data set is described as follows: Mouse hepatic lysosomal cathepsin D activity. It is filed as biochemical.
From the text: as §1
(§6) Lysosomal Enzymes - free and total [triton X-100].
as §5
Cathepsin azo casein activity -

In another data set the test system is cAMP. The data set is described as follows: PMNs cAMP levels, Gilman's radioimmune assay. As to conditions: 5 × 10^-6 M, N=6. It is filed as cell-based, rat.
From the text: as §4
cAMP levels Gilman's radioimmune assay. ^3 H(G)Cyclic-3', 5'-adenosine monophosphate.
In general terms: Cyclic AMP is a second messenger, typically raised through Gs and lowered through Gi signalling.

For data set [8], the system named is Prostaglandin cyclooxygenase. The data set is described as follows: Human osteoporosis fibroblasts prostaglandin cyclooxygenase activity. As to conditions: read-out: Prostaglandin Cyclooxygense IC50, Table XI, 60 min incubation. The format is cell-based.
The test system of data set [9] is Prostaglandin cyclooxygenase. The data set is described as follows: Mouse macrophage prostaglandin cyclooxygenase activity. It is filed as cell-based. Conditions: read-out: Prostaglandin Cyclooxygenase IC50; Table VIII; mouse macrophages, 60 min incubation.
From the text: 3. Mouse macrophages J774A.1 BALB/c
as §3

Data set [10] concerns Cathepsin. The data set is described as follows: Human leukocyte cathepsin. It is filed as cell-based. As to conditions: read-out: Cathepsin IC50; Table XII; human leukocytes, 60 min incubation.
From the text: 5. Human peripheral leukocytes, RPMI-1788
as §5

The target of data set [11] is T4, Cathepsin D (Homo sapiens, UniProt P07339).
T4 construct: azocasein assay pH 5.0
T4 sequence (P07339 65-412): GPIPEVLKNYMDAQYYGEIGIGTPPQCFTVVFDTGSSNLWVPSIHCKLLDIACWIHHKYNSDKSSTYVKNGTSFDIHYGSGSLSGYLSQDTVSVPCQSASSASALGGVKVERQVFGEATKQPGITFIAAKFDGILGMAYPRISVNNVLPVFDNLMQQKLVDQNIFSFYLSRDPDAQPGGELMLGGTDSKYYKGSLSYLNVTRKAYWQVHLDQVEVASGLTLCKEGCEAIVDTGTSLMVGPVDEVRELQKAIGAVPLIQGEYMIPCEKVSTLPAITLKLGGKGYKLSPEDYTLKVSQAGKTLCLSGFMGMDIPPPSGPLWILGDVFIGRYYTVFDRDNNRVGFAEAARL
The data set is described as follows: Human osteoporosis fibroblasts cathepsin D (azo-casein) activity. It is filed as cell-based. As to conditions: read-out: Cathepsin D IC50; Table X; human osteoporosis fibroblasts, DMEM +10% FCS + P/S.
From the text: Osteoporosis Human Fibroblast-CRL-1140, Be SA1

In data set [12] the test system is Cf1 male mice. The data set is described as follows: Writhing reflex, 0.6% acetic acid. The format is in vivo. More on the design: response vs control in vivo: dose or concentration left out as unconfirmed. Conditions: Mus musculus, ip, read-out: Writhing Reflex Cf1 Mice.
Another data set deals with Calcium. The data set is described as follows: Serum and urine calcium levels in vivo. Conditions: Cf1 male mice, 8 mg/kg/day I.P. 14 days, N=6.
Data set [13] relates to Aryl sulphatase. The data set is described as follows: Mouse macrophage aryl sulphatase activity. The format is cell-based. Conditions: read-out: Aryl Sulphatase IC50; Table VII; mouse macrophage cultured cells, 60 min incubation.
The next data set deals with Sprague Dawley Rats. The data set is described as follows: Anti-inflammatory activity in Sprague Dawley rats. It is filed as in vivo. Conditions: Table IV; 8 mg/kg I.P.
Data set [14] concerns Elastase. The data set is described as follows: Mouse macrophage elastase activity. It is filed as cell-based. Conditions: read-out: Elastase IC50; Table VIII; mouse macrophages, 60 min incubation.
The test system of data set [15] is Acid phosphatase. The data set is described as follows: Mouse hepatic lysosomal acid phosphatase activity. The format is biochemical.
From the text: as §1, §6, §2
Acid phosphatase activity -

Data set [16] has as its system Acid phosphatase. The data set is described as follows: Mouse macrophage acid phosphatase activity. The format is cell-based. As to conditions: read-out: Acid Phosphatase IC50; Table VII; mouse macrophage cultured cells, 60 min incubation.
Data set [17] relates to Sprague Dawley male rats. The data set is described as follows: Anti-pleurisy screen, Evans blue + carrageenan. It is filed as in vivo. As to conditions: Table 1.
The subject of data set [18] is Trypsin. The data set is described as follows: Human osteoporosis fibroblasts trypsin (BAEE) activity. Conditions: read-out: Trypsin BAEE IC50; Table XI; human osteoporosis fibroblasts, 60 min incubation. It is filed as cell-based. The text has this:
1. Trypsin- N-benzoyl-L-arginine ethyl ester pH 8.0, hydrolytic product 253 nm.

Data set [19] concerns Cf1 male mice. The data set is described as follows: Writhing reflex, 0.6% acetic acid. The format is in vivo. Conditions: Table 1; Indomethacin 10 mg/kg. Here is the method: Writhing reflex- Cf1 -male mice- 0.6% acetic acid I.P. drugs administered @20 mg/kg/ I.P. 20 min. later - the # of stretches/10 min.
Hendershot, L.C., et al, J.

The subject of the next data set is Hydroxyproline. The data set is described as follows: Serum and urine hydroxyproline levels in vivo. As to conditions: Cf1 male mice, 8 mg/kg/day I.P. 14 days, N=6.
For data set [20], the system named is Elastase. The data set is described as follows: Human osteoporosis fibroblasts elastase activity. As to conditions: read-out: Elastase IC50; Table XI; human osteoporosis fibroblasts, 60 min incubation. The format is cell-based. The source says: 2. Elastase- N-succinyl-L-alanyl-L-alanine-p-nitroanilide, pH 8.0, p-nitro anilide 410 nm.
Data set [21] concerns Trypsin. The data set is described as follows: Mouse macrophage trypsin (BAEE) activity. Conditions: read-out: Trypsin BAEE IC50; Table VIII; mouse macrophages, 60 min incubation. It is filed as cell-based.
The next data set concerns Phosphorus. The data set is described as follows: Serum and urine inorganic phosphorus levels in vivo. As to conditions: Cf1 male mice, 8 mg/kg/day I.P. 14 days, N=6.
The subject of data set [22] is Aryl sulphatase. The data set is described as follows: Human osteoporosis fibroblasts aryl sulphatase activity. It is filed as cell-based. As to conditions: read-out: Aryl Sulphatase IC50; Table X; human osteoporosis fibroblasts. The text has this:
3. Aryl sulphatase- p-nitrocatechol sulfate, pH
5. 8 p-nitro-catechol product 510 nm.

Data set [23] deals with Clostridium histolyticum Collagenase Type II. The data set is described as follows: Commercial collagenase type II. It is filed as biochemical. Conditions: Table IX; commercial enzyme preparation. The source says: 4. Collagenase II, Clostridium histolyticum, cartilage collagen.

By LD50 is commonly meant the dose expected to kill half of the subjects tested. As usually defined, the IC50 is the concentration needed to halve the response being measured. Turning to `C[N+](C)(C)[BH2-]C#N` [Compound 2, Trimethylamine-cyanoborane], the “Hepatic Oxidative Phosphorylation Succinate State 3” value in [1] is 51 + 20 % Control. Moreover, the “Hepatic Oxidative Phosphorylation Succinate State 4” value in data set [1] was 133 + 20 % Control. Moreover, the “Hepatic Oxidative Phosphorylation alpha-Ketoglutrate State 3” value in [1] is reported as 41 + 9 % Control. Also, the “Hepatic Oxidative Phosphorylation alpha-Ketoglutrate State 4” value in data set [1] was 85 + 21 % Control. This compound returned an LD50 at 336 h in the data set “in vivo” of 70 mg/kg. Further, the IC50 in the data set with Acid phosphatase [2] is 15.9 µM; against Prostaglandin synthetase it was 5.9 µM; on Cathepsin D [7] (read-out: Cathepsin D IC50, Table V, mouse hepatic, 60 min incubation) it was 0.72 µM; in data set [8], 4.26 µM; in data set [9], 5.88 µM; in the data set on Cathepsin [10], 77.1 µM. Further, the IC50 on Cathepsin D [11] was determined as 2.01 µM; in the data set with Aryl sulphatase [13], 9.29 µM; in the data set on Elastase [14], 1.35 µM; against Acid phosphatase [15] (Table V, mouse hepatic, 60 min incubation), 3.51 µM; in the data set with Acid phosphatase [16], 1.05 µM; in the data set on Trypsin [18], 3.98 µM. Also, the IC50 stood at 3.29 µM in the data set with Elastase [20], 1.41 µM in the data set with Trypsin [21] and 8.87 µM in the data set with Aryl sulphatase [22]. Moreover, in the data set on Sprague Dawley male rats [3], the Anti-arthritic is on record as 4 % Control. In the data set with Cf1 male mice [4], the Anti-inflammatory is 42 % Control. Further, the activity at 5 µM on Cathepsin [5] was determined as 4%; at Cathepsin D [7] (pH 5, read-out: Mouse Liver Cathep.), 6%. In the data set on Acid phosphatase [6], the “Rat PMNs Acid Phoph.” value is on record as 35 + 5 % Control. For the same compound, the “PMNs cAMP” value in the data set with cAMP is on record as 245 % Control. For the same compound, in the data set with Cf1 male mice [12], the response vs control in vivo came out at 18%. Besides, in the data set on Calcium, the Calcium serum is reported as 109.7 % Control. In the data set with Calcium, the Calcium urine stood at 50.8 % Control. Further, the “Anti-Inflammatory Activity Sprague Dawley Rats” value with Sprague Dawley Rats is 65 % Control. Also, the “Mouse Liver Acid Phosph.” value in the data set with Acid phosphatase [15] (5 × 10^-6 M, N=6, 5 µM) is on record as 69 + 4 % Control. Besides, the Anti-pleurisy in the data set on Sprague Dawley male rats [17] was found to be 65 % Control. For the same compound, in the data set with Cf1 male mice [19], the Writhing is reported as 18 % Control. For the same compound, the Hydroxyproline serum with Hydroxyproline is 71.7 % Control. Also, the Hydroxyproline urine with Hydroxyproline amounted to 42.5 % Control. In the data set on Phosphorus, this compound had a Phosphorus serum of 81.6 % Control. In the data set on Phosphorus, this compound gave a Phosphorus urine of 39.6 % Control.

For the compound `C[B-](C#N)(C#N)[N+](C)(C)C` [Compound 16, Trimethylamine-methyldicyanoborane], the IC50 in [23] is 110 µM; in [8] it was 9.29 µM; in data set [9], 3.05 µM; in the data set on Cathepsin [10], 65.2 µM; with Aryl sulphatase [13] it was 8.48 µM; in the data set with Elastase [14], 2.02 µM. In addition, the IC50 in the data set with Acid phosphatase [16] came out at 1.1 µM; in the data set on Trypsin [18], 3.35 µM; in the data set on Elastase [20], 3.6 µM; with Trypsin [21] it was 1.62 µM. Further, the response vs control in vivo with Cf1 male mice [12] is 33.9%.
